Results from patent US20110081315A1, “NOVEL MACROCYCLIC INHIBITORS OF HEPATITIS C VIRUS REPLICATION” (INTERMUNE, INC., priority 2009, published 2011).
Read-outs that look alike come from different tables or passages of the source.

Key:
hepatitis C replicon = hepatitis C replicon EC50 assay; type: cell-based; settings: Hepatitis C virus
Description: (§1) NS3-NS4 inhibition activity can be determined using known assay methods. For example, NS3/NS4 complexes may be formed and inhibitory concentrations of test compounds determined as described in U.S. Patent Application Publication Number 2007/0054842 paragraph numbers 1497-1509, which is incorporated herein by reference in its entirety. Similarly, hepatitis C replicon EC50 may be determined using known assay methods such as described in U.S. Patent Application Publication Number 2007/0054842 paragraph numbers 1510-1515, which is incorporated herein by reference in its entirety. Assays may be conducted at ambient temperature (23° C.) in assay buffer containing 50 mM Tris-HCl, pH 7.5, 15% glycerol, 0.6 mM Lauryldimethylamine Oxide (LDAO), 25 μM NS4A peptide, and 10 mM Dithiothreitol (DTT).

NS3/NS4 complexes = NS3/NS4 complexes (Hepatitis C virus genotype 1a, UniProt P27958); test: NS3/NS4 inhibition assay (IC50); type: biochemical; settings: NS3/NS4 activity; 23° C., 25 μM NS4A peptide
Sequence of NS3/NS4 complexes (P27958 1027-1657, one chain of several): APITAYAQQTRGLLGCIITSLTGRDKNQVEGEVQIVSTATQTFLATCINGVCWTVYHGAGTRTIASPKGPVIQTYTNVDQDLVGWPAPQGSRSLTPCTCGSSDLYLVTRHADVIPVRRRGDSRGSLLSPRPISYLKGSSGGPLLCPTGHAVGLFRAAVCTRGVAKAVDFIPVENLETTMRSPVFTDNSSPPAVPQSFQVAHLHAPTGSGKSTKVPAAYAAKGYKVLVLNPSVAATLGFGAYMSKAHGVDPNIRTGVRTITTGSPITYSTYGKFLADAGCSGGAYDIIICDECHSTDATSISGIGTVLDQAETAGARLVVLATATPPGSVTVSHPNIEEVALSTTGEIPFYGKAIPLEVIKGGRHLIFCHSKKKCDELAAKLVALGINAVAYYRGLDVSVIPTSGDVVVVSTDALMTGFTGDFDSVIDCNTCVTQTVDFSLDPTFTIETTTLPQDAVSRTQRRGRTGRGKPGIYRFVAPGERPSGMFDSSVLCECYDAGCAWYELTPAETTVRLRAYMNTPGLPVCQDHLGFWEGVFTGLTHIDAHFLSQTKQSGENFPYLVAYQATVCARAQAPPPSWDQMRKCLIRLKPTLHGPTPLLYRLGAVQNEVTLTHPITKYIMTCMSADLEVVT
Description: as §1

[1] = hepatitis C replicon, read-out: EC50

| SMILES | EC50 (hepatitis C replicon; [1]) | IC50 (NS3/NS4 complexes) | EC50 (hepatitis C replicon) |
| --- | --- | --- | --- |
| CC(C)n1c(O[C@@H]2C[C@H]3C(=O)N[C@]4(C(=O)NS(=O)(=O)N(C)C)C[C@H]4/C=C\CCCCC[C@H](NC(=O)OC(C)(C)C)C(=O)N3C2)nc2c(NC(N)=O)cccc21 [Compound 1425] | 10 to 100 nM | < 10 nM | – |
| CCNC(=O)c1cccc2c1nc(O[C@@H]1C[C@H]3C(=O)N[C@]4(C(=O)NS(=O)(=O)C5(C)CC5)C[C@H]4/C=C\CCCCC[C@H](Nc4ccccc4)C(=O)N3C1)n2C(C)C [Compound 271] | 10 to 100 nM | < 10 nM | – |
| CC(C)n1c(O[C@@H]2C[C@H]3C(=O)N[C@]4(C(=O)NS(=O)(=O)N(C)C)C[C@H]4/C=C\CCCCC[C@H](NC(=O)OC(C)(C)C)C(=O)N3C2)nc2c(-c3nc(-c4ccc(Cl)cc4)cs3)cccc21 [Compound 1751] | 10 to 100 nM | < 10 nM | – |
| COc1ccc2c(O[C@@H]3C[C@H]4C(=O)N[C@]5(C(=O)NS(=O)(=O)C6(C)CC6)C[C@H]5/C=C\CCCCC[C@H](Nc5ccc(N)cc5)C(=O)N4C3)cc(-c3nc(C(C)C)cs3)nc2c1C [Compound 101] | – | < 10 nM | 10 to 100 nM |
| CC(C)c1csc(-c2cccc3c2nc(O[C@@H]2C[C@H]4C(=O)N[C@]5(C(=O)NS(=O)(=O)C6(C)CC6)C[C@H]5/C=C\CCCCC[C@H](NC(=O)OC(C)(C)C)C(=O)N4C2)n3C(C)C)n1 [Compound 1403] | < 10 nM | < 10 nM | – |
| Cc1ccc(-c2csc(-c3cccc4c3nc(O[C@@H]3C[C@H]5C(=O)N[C@]6(C(=O)NS(=O)(=O)N(C)C)C[C@H]6/C=C\CCCCC[C@H](NC(=O)OC(C)(C)C)C(=O)N5C3)n4C(C)C)n2)c(C)c1 [Compound 1754] | 10 to 100 nM | < 10 nM | – |
| Cc1cccc(-c2csc(-c3cccc4c3nc(O[C@@H]3C[C@H]5C(=O)N[C@]6(C(=O)NS(=O)(=O)N(C)C)C[C@H]6/C=C\CCCCC[C@H](NC(=O)OC(C)(C)C)C(=O)N5C3)n4C(C)C)n2)c1 [Compound 1750] | 10 to 100 nM | < 10 nM | – |
| COc1ccc2c(O[C@@H]3C[C@H]4C(=O)N[C@]5(C(=O)NS(=O)(=O)C6(C)CC6)C[C@H]5/C=C\CCCCC[C@H](Nc5ccc(OC(F)(F)F)c(F)c5)C(=O)N4C3)cc(-c3nc(C(C)C)cs3)nc2c1C (single isomer, unassigned) [Compound 602] | 10 to 100 nM | < 10 nM | – |
| COc1ccc2c(O[C@@H]3C[C@H]4C(=O)N[C@]5(C(=O)NS(=O)(=O)C6(C)CC6)C[C@H]5/C=C\CCCCC[C@H](Nc5cccc(NC(=O)N6CCOCC6)c5)C(=O)N4C3)cc(-c3nc(C(C)C)cs3)nc2c1C [Compound 127] | < 10 nM | < 10 nM | – |
| CC(C)n1c(O[C@@H]2C[C@H]3C(=O)N[C@]4(C(=O)NS(=O)(=O)C5(C)CC5)C[C@H]4/C=C\CCCCC[C@H](Nc4ccccc4)C(=O)N3C2)nc2c(NC(N)=O)cccc21 [Compound 1410] | 10 to 100 nM | < 10 nM | – |
| CC(C)n1c(O[C@@H]2C[C@H]3C(=O)N[C@]4(C(=O)NS(=O)(=O)N(C)C)C[C@H]4/C=C\CCCCC[C@H](NC(=O)OC(C)(C)C)C(=O)N3C2)nc2c(-c3nc(Cc4cccc(F)c4)cs3)cccc21 [Compound 1758] | 10 to 100 nM | < 10 nM | – |
| CC(C)n1c(O[C@@H]2C[C@H]3C(=O)N[C@]4(C(=O)NS(=O)(=O)C5(C)CC5)C[C@H]4/C=C\CCCCC[C@H](NC(=O)OC(C)(C)C)C(=O)N3C2)nc2c(-c3nc(C4CCCC4)cs3)cccc21 [Compound 1402] | < 10 nM | < 10 nM | – |
| CC(C)n1c(O[C@@H]2C[C@H]3C(=O)N[C@]4(C(=O)NS(=O)(=O)C5(C)CC5)C[C@H]4/C=C\CCCCC[C@H](NC(=O)OC(C)(C)C)C(=O)N3C2)nc2c(-c3nc(-c4ccccc4)cs3)cccc21 [Compound 1708] | < 10 nM | < 10 nM | – |
| CC(C)n1c(O[C@@H]2C[C@H]3C(=O)N[C@]4(C(=O)NS(=O)(=O)N(C)C)C[C@H]4/C=C\CCCCC[C@H](NC(=O)OC(C)(C)C)C(=O)N3C2)nc2cc(-c3ccccc3)ccc21 [Compound 262] | 10 to 100 nM | < 10 nM | – |
| CCn1c(O[C@@H]2C[C@H]3C(=O)N[C@]4(C(=O)NS(=O)(=O)N(C)C)C[C@H]4/C=C\CCCCC[C@H](NC(=O)OC(C)(C)C)C(=O)N3C2)nc2c(-c3nc(C(C)C)cs3)cccc21 [Compound 1430] | 10 to 100 nM | < 10 nM | – |
| CC(C)n1c(O[C@@H]2C[C@H]3C(=O)N[C@]4(C(=O)NS(=O)(=O)N(C)C)C[C@H]4/C=C\CCCCC[C@H](NC(=O)OC(C)(C)C)C(=O)N3C2)nc2c(C(=O)NCc3ccccc3)cccc21 [Compound 283] | < 10 nM | < 10 nM | – |

| SMILES | EC50 (hepatitis C replicon; [1]) | IC50 (NS3/NS4 complexes) | EC50 (hepatitis C replicon) |
| --- | --- | --- | --- |
| Cn1ccc2ccc(O[C@@H]3C[C@H]4C(=O)N[C@]5(C(=O)NS(=O)(=O)C6(C)CC6)C[C@H]5/C=C\CCCCC[C@H](NC(=O)OC(C)(C)C)C(=O)N4C3)cc21 [Compound 702] | 10 to 100 nM | < 10 nM | – |
| CCn1c(O[C@@H]2C[C@H]3C(=O)N[C@]4(C(=O)NS(=O)(=O)N(C)C)C[C@H]4/C=C\CCCCC[C@H](NC(=O)OC(C)(C)C)C(=O)N3C2)nc2c(-c3nc(C(C)C)c(C)s3)cccc21 [Compound 1432] | 10 to 100 nM | < 10 nM | – |
| CC(C)n1c(O[C@@H]2C[C@H]3C(=O)N[C@]4(C(=O)NS(=O)(=O)N(C)C)C[C@H]4/C=C\CCCCC[C@H](NC(=O)OC(C)(C)C)C(=O)N3C2)nc2c(-c3csc(C(C)(C)C)n3)cccc21 [Compound 1743] | 10 to 100 nM | < 10 nM | – |
| CC(C)n1c(O[C@@H]2C[C@H]3C(=O)N[C@]4(C(=O)NS(=O)(=O)N(C)C)C[C@H]4/C=C\CCCCC[C@H](NC(=O)OC(C)(C)C)C(=O)N3C2)nc2c(-c3nc(C4CCCC4)cs3)cccc21 [Compound 293] | 10 to 100 nM | < 10 nM | – |
| CNC(=O)c1cccc2c1nc(O[C@@H]1C[C@H]3C(=O)N[C@]4(C(=O)NS(=O)(=O)C5(C)CC5)C[C@H]4/C=C\CCCCC[C@H](Nc4ccccc4)C(=O)N3C1)n2C(C)C [Compound 269] | 10 to 100 nM | < 10 nM | – |
| Cc1ccc(-c2csc(-c3cccc4c3nc(O[C@@H]3C[C@H]5C(=O)N[C@]6(C(=O)NS(=O)(=O)C7(C)CC7)C[C@H]6/C=C\CCCCC[C@H](NC(=O)OC(C)(C)C)C(=O)N5C3)n4C(C)C)n2)cc1 [Compound 1709] | 10 to 100 nM | < 10 nM | – |
| CC(C)n1c(O[C@@H]2C[C@H]3C(=O)N[C@]4(C(=O)NS(=O)(=O)C5(C)CC5)C[C@H]4/C=C\CCCCC[C@H](Nc4ccccc4)C(=O)N3C2)nc2c(C(N)=O)cccc21 [Compound 268] | 10 to 100 nM | < 10 nM | – |
| COc1ccc2c(O[C@@H]3C[C@H]4C(=O)N[C@]5(C(=O)NS(=O)(=O)C6(C)CC6)C[C@H]5/C=C\CCCCC[C@H](Nc5cccc(C(=O)N6C[C@@H](C)O[C@@H](C)C6)c5)C(=O)N4C3)cc(-c3nc(C(C)C)cs3)nc2c1C [Compound 120] | < 10 nM | < 10 nM | – |
| CC(C)n1c(O[C@@H]2C[C@H]3C(=O)N[C@]4(C(=O)NS(=O)(=O)N(C)C)C[C@H]4/C=C\CCCCC[C@H](NC(=O)OC(C)(C)C)C(=O)N3C2)nc2c(-c3nc(Cc4ccccc4)cs3)cccc21 [Compound 1768] | < 10 nM | < 10 nM | – |
| Cc1nc2ccccc2nc1O[C@@H]1C[C@H]2C(=O)N[C@]3(C(=O)NS(=O)(=O)C4(C)CC4)C[C@H]3/C=C\CCCCC[C@H](Nc3ccccc3)C(=O)N2C1 [Compound 310] | 10 to 100 nM | < 10 nM | – |
| CC(C)n1c(O[C@@H]2C[C@H]3C(=O)N[C@]4(C(=O)NS(=O)(=O)C5(C)CC5)C[C@H]4/C=C\CCCCC[C@H](Nc4ccccc4)C(=O)N3C2)nc2c(-c3cccc(OC(F)(F)F)c3)cccc21 [Compound 247] | > 100 nM | < 10 nM | – |
| CC(C)NC(=O)Nc1cccc2c1nc(O[C@@H]1C[C@H]3C(=O)N[C@]4(C(=O)NS(=O)(=O)N(C)C)C[C@H]4/C=C\CCCCC[C@H](NC(=O)OC(C)(C)C)C(=O)N3C1)n2C(C)C [Compound 1421] | < 10 nM | < 10 nM | – |
| Cc1sc(-c2cccc3c2nc(O[C@@H]2C[C@H]4C(=O)N[C@]5(C(=O)NS(=O)(=O)C6(C)CC6)C[C@H]5/C=C\CCCCC[C@H](NC(=O)OC(C)(C)C)C(=O)N4C2)n3C(C)C)nc1C(C)(C)C [Compound 1208] | 10 to 100 nM | < 10 nM | – |
| CC(C)c1cccc2nc(O[C@@H]3C[C@H]4C(=O)N[C@]5(C(=O)NS(=O)(=O)N(C)C)C[C@H]5/C=C\CCCCC[C@H](NC(=O)OC(C)(C)C)C(=O)N4C3)n(C(C)C)c12 [Compound 290] | 10 to 100 nM | < 10 nM | – |
| CC(C)n1c(O[C@@H]2C[C@H]3C(=O)N[C@]4(C(=O)NS(=O)(=O)C5CC5)C[C@H]4/C=C\CCCCC[C@H](NC(=O)OC(C)(C)C)C(=O)N3C2)nc2c(-c3nc(-c4ccccc4)cs3)cccc21 [Compound 221] | < 10 nM | < 10 nM | – |
